Data: PubChem BioAssay AID1963442 (Molecular Pharmacology Branch, DTP, NCI, 2024)

Test system: MPNST complex spheroid with HUVEC/MSC, growth, % test/control
Assay: Anticancer human tumor MPNST cell line growth inhibition [Asc];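 further: compounds left on spheroids for seven days before reading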
Conditions: for IC50: curve of first compound; for viability, T/C: stronger effect = lower value; active means viability on the fitted dose curve at most 10% of control; inactive means the rest
How it was run: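 Spheroid model: tumor line + HUVEC + hMSC. Single agents and combinations; top conc. at/near clinical Cmax (10 microM if undetermined), half-log dilutions. DMSO stocks at 800-fold test concentration.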

Cc1nc(N2CCC3(CC2)COC(C)C3N)c(CO)nc1Sc1ccnc(N)c1Cl (stereo not given) + CCN1C(C(=O)NC23CCC(C(=O)O)(CC2)CC3)C(c2cccc(Cl)c2F)C2(C(=O)Nc3cc(Cl)ccc32)C12CCCCC2
inactive: viability, T/C (second compound 0.03 µM, first compound 0.00949 µM) 92% | viability, T/C (second compound 0.03 µM, first compound 0.03 µM) 84.1% | viability, T/C (second compound 0.03 µM, first compound 0.0949 µM) 90.7% | viability, T/C (second compound 0.03 µM, first compound 0.3 µM) 87.9% | viability, T/C (second compound 0.03 µM, first compound 0.949 µM) 101% | viability, T/C (second compound 0.03 µM, first compound 3 µM) 75.5% | viability, T/C (second compound 0.0949 µM, first compound 0.00949 µM) 83.8% | viability, T/C (second compound 0.0949 µM, first compound 0.03 µM) 89% | viability, T/C (second compound 0.0949 µM, first compound 0.0949 µM) 92.2% | viability, T/C (second compound 0.0949 µM, first compound 0.3 µM) 82.2% | viability, T/C (second compound 0.0949 µM, first compound 0.949 µM) 75.5% | viability, T/C (second compound 0.0949 µM, first compound 3 µM) 58.3% | viability, T/C (second compound 0.3 µM, first compound 0.00949 µM) 101% | viability, T/C (second compound 0.3 µM, first compound 0.03 µM) 83.6% | viability, T/C (second compound 0.3 µM, first compound 0.0949 µM) 92.8% | viability, T/C (second compound 0.3 µM, first compound 0.3 µM) 77.2% | viability, T/C (second compound 0.3 µM, first compound 0.949 µM) 83.2% | viability, T/C (second compound 0.3 µM, first compound 3 µM) 63.4% | viability, T/C (second compound 0.949 µM, first compound 0.00949 µM) 77.9% | viability, T/C (second compound 0.949 µM, first compound 0.03 µM) 89.9% | viability, T/C (second compound 0.949 µM, first compound 0.0949 µM) 70% | viability, T/C (second compound 0.949 µM, first compound 0.3 µM) 76.7% | viability, T/C (second compound 0.949 µM, first compound 0.949 µM) 68% | viability, T/C (second compound 0.949 µM, first compound 3 µM) 54.4% | viability, T/C (second compound 3 µM, first compound 0.00949 µM) 66.3% | viability, T/C (second compound 3 µM, first compound 0.03 µM) 75.9% | viability, T/C (second compound 3 µM, first compound 0.0949 µM) 72.4% | viability, T/C (second compound 3 µM, first compound 0.3 µM) 67.8% | viability, T/C (second compound 3 µM, first compound 0.949 µM) 52.3% | viability, T/C (second compound 3 µM, first compound 3 µM) 55.8%
> 3000 nM: IC50 (second compound 0.03 µM) | IC50 (second compound 0.0949 µM) | IC50 (second compound 0.3 µM) | IC50 (second compound 0.949 µM) | IC50 (second compound 3 µM)

CNC(C)C(=O)NC1CN(S(=O)(=O)c2cccc(S(=O)(=O)N3CCC4CCC(C(=O)NC(c5ccccc5)c5ccccc5)N4C(=O)C(NC(=O)C(C)NC)C3)c2)CCC2CCC(C(=O)NC(c3ccccc3)c3ccccc3)N2C1=O (stereo not given) + CCN1C(C(=O)NC23CCC(C(=O)O)(CC2)CC3)C(c2cccc(Cl)c2F)C2(C(=O)Nc3cc(Cl)ccc32)C12CCCCC2
> 1000 nM: IC50 (second compound 0.03 µM) | IC50 (second compound 0.0949 µM) | IC50 (second compound 0.3 µM) | IC50 (second compound 0.949 µM) | IC50 (second compound 3 µM)
inactive: viability, T/C (second compound 0.03 µM, first compound 0.00316 µM) 74.7% | viability, T/C (second compound 0.03 µM, first compound 0.01 µM) 78.1% | viability, T/C (second compound 0.03 µM, first compound 0.0316 µM) 94.7% | viability, T/C (second compound 0.03 µM, first compound 0.1 µM) 114% | viability, T/C (second compound 0.03 µM, first compound 0.316 µM) 106% | viability, T/C (second compound 0.03 µM, first compound 1 µM) 93% | viability, T/C (second compound 0.0949 µM, first compound 0.00316 µM) 92.5% | viability, T/C (second compound 0.0949 µM, first compound 0.01 µM) 93.9% | viability, T/C (second compound 0.0949 µM, first compound 0.0316 µM) 100% | viability, T/C (second compound 0.0949 µM, first compound 0.1 µM) 100% | viability, T/C (second compound 0.0949 µM, first compound 0.316 µM) 108% | viability, T/C (second compound 0.0949 µM, first compound 1 µM) 89.3% | viability, T/C (second compound 0.3 µM, first compound 0.00316 µM) 101% | viability, T/C (second compound 0.3 µM, first compound 0.01 µM) 99.7% | viability, T/C (second compound 0.3 µM, first compound 0.0316 µM) 99.4% | viability, T/C (second compound 0.3 µM, first compound 0.1 µM) 99.8% | viability, T/C (second compound 0.3 µM, first compound 0.316 µM) 96.6% | viability, T/C (second compound 0.3 µM, first compound 1 µM) 122% | viability, T/C (second compound 0.949 µM, first compound 0.00316 µM) 98.1% | viability, T/C (second compound 0.949 µM, first compound 0.01 µM) 93.2% | viability, T/C (second compound 0.949 µM, first compound 0.0316 µM) 107% | viability, T/C (second compound 0.949 µM, first compound 0.1 µM) 104% | viability, T/C (second compound 0.949 µM, first compound 0.316 µM) 105% | viability, T/C (second compound 0.949 µM, first compound 1 µM) 106% | viability, T/C (second compound 3 µM, first compound 0.00316 µM) 86.2% | viability, T/C (second compound 3 µM, first compound 0.01 µM) 86.9% | viability, T/C (second compound 3 µM, first compound 0.0316 µM) 100% | viability, T/C (second compound 3 µM, first compound 0.1 µM) 104% | viability, T/C (second compound 3 µM, first compound 0.316 µM) 93.8% | viability, T/C (second compound 3 µM, first compound 1 µM) 118%

NC(=O)C(=Cn1cnc(-c2cc(C(F)(F)F)cc(C(F)(F)F)c2)n1)c1cncnc1 + Cc1c(S(C)(=O)=O)c(-c2cc(F)cc(N3CCN(c4ccc(NS(=O)(=O)c5ccc(NC(CCN6CCC(C(=O)OCCCP(=O)(O)O)CC6)CSc6ccccc6)c(S(=O)(=O)C(F)(F)F)c5)cc4)CC3)c2)c(-c2ccc(Cl)cc2)n1C(C)C
75.6 nM: IC50 (second compound 10 µM)
72 nM: IC50 (second compound 1 µM)
inactive: viability, T/C (second compound 0.1 µM, first compound 0.000949 µM) 56.9% | viability, T/C (second compound 0.1 µM, first compound 0.003 µM) 65.2% | viability, T/C (second compound 0.1 µM, first compound 0.00949 µM) 59% | viability, T/C (second compound 0.1 µM, first compound 0.03 µM) 80.2% | viability, T/C (second compound 0.1 µM, first compound 0.0949 µM) 66.9% | viability, T/C (second compound 0.1 µM, first compound 0.3 µM) 44.9% | viability, T/C (second compound 0.316 µM, first compound 0.000949 µM) 68.9% | viability, T/C (second compound 0.316 µM, first compound 0.003 µM) 80% | viability, T/C (second compound 0.316 µM, first compound 0.00949 µM) 74.3% | viability, T/C (second compound 0.316 µM, first compound 0.03 µM) 64.3% | viability, T/C (second compound 0.316 µM, first compound 0.0949 µM) 61.5% | viability, T/C (second compound 0.316 µM, first compound 0.3 µM) 40.6% | viability, T/C (second compound 1 µM, first compound 0.000949 µM) 78.6% | viability, T/C (second compound 1 µM, first compound 0.003 µM) 75.8% | viability, T/C (second compound 1 µM, first compound 0.00949 µM) 67.9% | viability, T/C (second compound 1 µM, first compound 0.03 µM) 54.4% | viability, T/C (second compound 1 µM, first compound 0.0949 µM) 50.6% | viability, T/C (second compound 1 µM, first compound 0.3 µM) 41.5% | viability, T/C (second compound 3.16 µM, first compound 0.000949 µM) 65.3% | viability, T/C (second compound 3.16 µM, first compound 0.003 µM) 78.5% | viability, T/C (second compound 3.16 µM, first compound 0.00949 µM) 70.1% | viability, T/C (second compound 3.16 µM, first compound 0.03 µM) 51.5% | viability, T/C (second compound 3.16 µM, first compound 0.0949 µM) 44.6% | viability, T/C (second compound 3.16 µM, first compound 0.3 µM) 39.3% | viability, T/C (second compound 10 µM, first compound 0.000949 µM) 73.3% | viability, T/C (second compound 10 µM, first compound 0.003 µM) 72.4% | viability, T/C (second compound 10 µM, first compound 0.00949 µM) 65.6% | viability, T/C (second compound 10 µM, first compound 0.03 µM) 58.4% | viability, T/C (second compound 10 µM, first compound 0.0949 µM) 48% | viability, T/C (second compound 10 µM, first compound 0.3 µM) 34.6%
172 nM: IC50 (second compound 0.316 µM)
37.4 nM: IC50 (second compound 3.16 µM)
> 300 nM: IC50 (second compound 0.1 µM)
